Experimental data from patent publication US20240009232A1, “COMBINATION THERAPY COMPRISING HER-2-DC1 VACCINE AND A PROBIOTIC” (H. LEE MOFFITT CANCER CENTER AND RESEARCH INSTITUTE, INC., priority 2021, published 2024).

Tested on: TUBO tumors
Assay: Mono- and combination therapies in HER2+ TUBO bearing mice (FIG. 8, FIG. 9)
Format: in vivo, Balb/C mice
Settings: monotherapy
Description: Balb/C mice or C57BL/6 mice received tumor cells on day 0 followed by different treatments; two doses of Taxol given intraperitoneally (i.p.) once a week; CDK inhibitor, abemaciclib was administered by oral gavage till end point; Anti-PD-L1 was given i.p. twice a week until end point; DC1 vaccine was given intratumorally.
Balb/C mice bearing TUBO tumors were treated with intratumoral HER2-DC1 vaccine alone or anti-HER2 antibody or a combination of both.
TUBO bearing mice were treated with intratumoral HER2-DC1 vaccine alone or Abemaciclib or a combination of both.
Here, we can investigate the role of gut microbiome in response to combination therapy. […] Balb/C mice bearing TUBO tumors were treated with intratumoral HER-DC1 alone or anti-HER2 antibody (7.16.4+7.9.5) alone or combination of both. While CDK inhibitor, abemaciclib was given daily by oral gavage alone or in combination with intratumoral HER2-DC1.

CC(=O)O[C@H]1C(=O)[C@@]2(C)[C@H]([C@H](OC(=O)c3ccccc3)[C@]3(O)C[C@H](OC(=O)[C@H](O)[C@@H](NC(=O)c4ccccc4)c4ccccc4)C(C)=C1C3(C)C)[C@]1(OC(C)=O)CO[C@@H]1C[C@@H]2O [taxol, paclitaxel]
tumor growth: modestly delayed tumor growth
